Laboratory results: ChEMBL document CHEMBL4270534, “Novel carbazole-triazole conjugates as DNA-targeting membrane active potentiators against clinical isolated fungi” (Eur J Med Chem, 2018)
≈ marks a conversion by molar mass, not a printed value. Calls of active or inactive are those of the source. The calls are words filed in the database; no cut-off is given here.

How the values were obtained:
Candida tropicalis [1] = assay: Fungicidal activity against Candida tropicalis incubated for 24 hrs followed by plating onto tryptic soy agar medium and measured after 24 hrs by broth microdilution method; assay type: functional
Pseudomonas aeruginosa [2] = assay: Antibacterial activity against Pseudomonas aeruginosa ATCC 27853 after 24 hrs by micro broth dilution method; assay type: functional; conditions: ATCC 27853, 24 h
Staphylococcus aureus [3] = assay: Antibacterial activity against Staphylococcus aureus ATCC 29213 after 24 hrs by micro broth dilution method; assay type: functional; conditions: ATCC 29213, 24 h
Acinetobacter baumannii = assay: Antibacterial activity against Acinetobacter baumannii after 24 hrs by micro broth dilution method; assay type: functional
Candida tropicalis [4] = assay: Synergistic antifungal activity against Candida tropicalis assessed as FIC index after 18 hrs in presence of fluconazole by checkerboard assay; assay type: functional
Candida albicans [5] = assay: Synergistic antifungal activity against Candida albicans assessed as FIC index after 18 hrs in presence of fluconazole by checkerboard assay; assay type: functional
Candida albicans [6] = assay: Antifungal activity against Candida albicans ATCC 90023 after 24 hrs by two-fold broth microdilution assay; assay type: functional; conditions: ATCC 90023, 24 h
Candida albicans [7] = assay: Ratio of MFC to MIC for Candida albicans; assay type: functional
Candida tropicalis [8] = assay: Antifungal activity against Candida tropicalis after 24 hrs by two-fold broth microdilution assay; assay type: functional
Staphylococcus aureus [9] = assay: Antibacterial activity against Staphylococcus aureus after 24 hrs by micro broth dilution method; assay type: functional
Pseudomonas aeruginosa [10] = assay: Antibacterial activity against Pseudomonas aeruginosa after 24 hrs by micro broth dilution method; assay type: functional
Aspergillus fumigatus [11] = assay: Synergistic antifungal activity against Aspergillus fumigatus assessed as FIC index after 18 hrs in presence of fluconazole by checkerboard assay; assay type: functional
Escherichia coli [12] = assay: Antibacterial activity against Escherichia coli ATCC 25922 after 24 hrs by micro broth dilution method; assay type: functional; conditions: ATCC 25922, 24 h
Candida albicans [13] = assay: Antifungal activity against Candida albicans after 24 hrs by two-fold broth microdilution assay; assay type: functional
Candida tropicalis [14] = assay: Synergistic antifungal activity against Candida tropicalis after 18 hrs in presence of fluconazole by checkerboard assay; assay type: functional
Candida tropicalis [15] = assay: Ratio of MFC to MIC for Candida tropicalis; assay type: functional
Enterococcus faecalis = assay: Antibacterial activity against Enterococcus faecalis after 24 hrs by micro broth dilution method; assay type: functional
Aspergillus fumigatus [16] = assay: Synergistic antifungal activity against Aspergillus fumigatus after 18 hrs in presence of fluconazole by checkerboard assay; assay type: functional
Candida parapsilosis [17] = assay: Ratio of MFC to MIC for Candida parapsilosis ATCC 22019; assay type: functional
Escherichia coli [18] = assay: Antibacterial activity against Escherichia coli after 24 hrs by micro broth dilution method; assay type: functional
Aspergillus fumigatus [19] = assay: Antifungal activity against Aspergillus fumigatus after 24 hrs by two-fold broth microdilution assay; assay type: functional
Candida parapsilosis [20] = assay: Antifungal activity against Candida parapsilosis ATCC 22019 after 24 hrs by two-fold broth microdilution assay; assay type: functional; conditions: Lodderomyces parapsilosis, ATCC 22019, 24 h
Candida albicans [21] = assay: Fungicidal activity against Candida albicans incubated for 24 hrs followed by plating onto tryptic soy agar medium and measured after 24 hrs by broth microdilution method; assay type: functional
Staphylococcus aureus [22] = assay: Antibacterial activity against Staphylococcus aureus ATCC 25923 after 24 hrs by micro broth dilution method; assay type: functional; conditions: ATCC 25923, 24 h
Staphylococcus aureus [23] = assay: Antibacterial activity against methicillin-resistant Staphylococcus aureus after 24 hrs by micro broth dilution method; assay type: functional
Candida albicans [24] = assay: Synergistic antifungal activity against Candida albicans after 18 hrs in presence of fluconazole by checkerboard assay; assay type: functional
Candida parapsilosis [25] = assay: Fungicidal activity against Candida parapsilosis ATCC 22019 incubated for 24 hrs followed by plating onto tryptic soy agar medium and measured after 24 hrs by broth microdilution method; assay type: functional; conditions: Lodderomyces parapsilosis, ATCC 22019, 24 h
Klebsiella pneumoniae = assay: Antibacterial activity against Klebsiella pneumoniae after 24 hrs by micro broth dilution method; assay type: functional
Calf thymus DNA [26] = assay: Binding affinity to calf thymus DNA assessed as Stern-Volmer quenching constant at 1 x 10^-5 mol/L in presence of potassium iodide by fluorescence assay (reference value: 12.9 L/mol); assay type: nucleic-acid assay; conditions: Bos taurus
Candida tropicalis [27] = assay: Potency index, ratio of fluconazole MIC to test compound MIC for Candida tropicalis; assay type: functional
Calf thymus DNA [28] = assay: Binding affinity to calf thymus DNA by UV absorption spectral analysis; assay type: nucleic-acid assay; conditions: Bos taurus
Candida albicans [29] = assay: Induction of cytoplasmic membrane depolarization in Candida albicans measured for 300 secs by DiSC3-5 dye based fluorescence spectral analysis; assay type: functional, organism-based
Candida albicans [30] = assay: Potentiation of fluconazole-induced antifungal activity against Candida albicans at MIC after 16 serial passages; assay type: functional, organism-based
Calf thymus DNA [31] = assay: Displacement of neutral dye from calf thymus DNA up to 2 x 10^-5mol/L by UV absorption spectra analysis; assay type: nucleic-acid assay; conditions: Bos taurus
Candida albicans [32] = assay: Antifungal activity against Candida albicans at MIC after 10 serial passages; assay type: functional, organism-based
Calf thymus DNA [33] = assay: Binding affinity to calf thymus DNA assessed as hypochromic shift up to 2 x 10^-5mol/L by UV absorption spectral analysis; assay type: nucleic-acid assay; conditions: Bos taurus
Albumin = Albumin (Homo sapiens, UniProt P02768); assay: Binding affinity to human serum albumin assessed as increase in peak intensity at tryptophan/tyrosine/phenylalanine residue up to 2 x 10^-5mol/L by UV-vis absorption spectra analysis; assay type: ADME; conditions: isolated protein
Candida parapsilosis [34] = assay: Potency index, ratio of fluconazole MIC to test compound MIC for Candida parapsilosis ATCC 22019; assay type: functional
Candida albicans [35] = assay: Antifungal activity against Candida albicans assessed as ratio of MIC after and before 10 serial passages; assay type: functional

Sequence of Albumin (P02768 whole entry): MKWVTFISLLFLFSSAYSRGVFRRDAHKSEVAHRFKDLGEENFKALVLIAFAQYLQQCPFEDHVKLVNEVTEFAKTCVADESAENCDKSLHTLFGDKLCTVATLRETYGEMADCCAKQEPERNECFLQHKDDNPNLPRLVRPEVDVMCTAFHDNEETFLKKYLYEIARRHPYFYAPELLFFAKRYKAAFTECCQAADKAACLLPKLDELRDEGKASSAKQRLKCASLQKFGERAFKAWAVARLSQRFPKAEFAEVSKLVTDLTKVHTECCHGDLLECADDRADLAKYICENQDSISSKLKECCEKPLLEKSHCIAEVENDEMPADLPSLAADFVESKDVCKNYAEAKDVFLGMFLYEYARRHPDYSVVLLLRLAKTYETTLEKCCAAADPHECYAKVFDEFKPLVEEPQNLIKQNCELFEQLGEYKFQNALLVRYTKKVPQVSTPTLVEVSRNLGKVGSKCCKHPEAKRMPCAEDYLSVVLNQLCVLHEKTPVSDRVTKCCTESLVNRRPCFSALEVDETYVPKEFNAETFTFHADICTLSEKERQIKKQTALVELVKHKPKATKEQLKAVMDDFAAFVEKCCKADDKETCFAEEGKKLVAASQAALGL

| SMILES | MFC (Candida tropicalis [1]) | MIC (Pseudomonas aeruginosa [2]) | MIC (Staphylococcus aureus [3]) | MIC (Acinetobacter baumannii) | fractional inhibitory concentration index (FICI) (Candida tropicalis [4]) | fractional inhibitory concentration index (FICI) (Candida albicans [5]) | MIC (Candida albicans [6]) | Ratio (Candida albicans [7]) | MIC (Candida tropicalis [8]) | MIC (Staphylococcus aureus [9]) | MIC (Pseudomonas aeruginosa [10]) | fractional inhibitory concentration index (FICI) (Aspergillus fumigatus [11]) | MIC (Escherichia coli [12]) | MIC (Candida albicans [13]) | MIC (Candida tropicalis [14]) | Ratio (Candida tropicalis [15]) | MIC (Enterococcus faecalis) | MIC (Aspergillus fumigatus [16]) | MIC (Aspergillus fumigatus [19]) | MIC (Candida parapsilosis [20]) | further results |
| --- | --- | --- | --- | --- | --- | --- | --- | --- | --- | --- | --- | --- | --- | --- | --- | --- | --- | --- | --- | --- | --- |
| OC(Cn1cncn1)(Cn1c2ccccc2c2ccc(Br)cc21)c1ccc(F)cc1F (stereo not drawn) | 4 µg/mL (≈ 8.28 µM) | 128 µg/mL (≈ 265 µM) | 32 µg/mL (≈ 66.2 µM) | 64 µg/mL (≈ 132 µM) | 1.5 | 1.25 | 16 µg/mL (≈ 33.1 µM) | 1 | 4 µg/mL (≈ 8.28 µM) | 64 µg/mL (≈ 132 µM) | 64 µg/mL (≈ 132 µM) | 0.32 | 64 µg/mL (≈ 132 µM) | 16 µg/mL (≈ 33.1 µM) | 4 µg/mL | 1 | 32 µg/mL (≈ 66.2 µM) | 16 µg/mL | 64 µg/mL (≈ 132 µM) | 16 µg/mL (≈ 33.1 µM) | Ratio (Candida parapsilosis [17]): 2; MIC (Escherichia coli [18]): 64 µg/mL (≈ 132 µM); MFC (Candida albicans [21]): 16 µg/mL (≈ 33.1 µM); MIC (Staphylococcus aureus [22]): 16 µg/mL (≈ 33.1 µM); MIC (Staphylococcus aureus [23]): 16 µg/mL (≈ 33.1 µM); MIC (Candida albicans [24]): 4 µg/mL; MFC (Candida parapsilosis [25]): 32 µg/mL (≈ 66.2 µM); MIC (Klebsiella pneumoniae): 128 µg/mL (≈ 265 µM) |
| OC(Cn1cncn1)(Cn1c2ccccc2c2cc(Br)ccc21)c1ccc(F)cc1F (stereo not drawn) | 32 µg/mL (≈ 66.2 µM) | 128 µg/mL (≈ 265 µM) | 16 µg/mL (≈ 33.1 µM) | 64 µg/mL (≈ 132 µM) | 1.5 | 0.75 | 32 µg/mL (≈ 66.2 µM) | 2 | 4 µg/mL (≈ 8.28 µM) | 32 µg/mL (≈ 66.2 µM) | 64 µg/mL (≈ 132 µM) | 0.32 | 32 µg/mL (≈ 66.2 µM) | 8 µg/mL (≈ 16.6 µM) | 4 µg/mL | 8 | 32 µg/mL (≈ 66.2 µM) | 16 µg/mL | 64 µg/mL (≈ 132 µM) | 8 µg/mL (≈ 16.6 µM) | Ratio (Candida parapsilosis [17]): 1; MIC (Escherichia coli [18]): 32 µg/mL (≈ 66.2 µM); MFC (Candida albicans [21]): 16 µg/mL (≈ 33.1 µM); MIC (Staphylococcus aureus [22]): 16 µg/mL (≈ 33.1 µM); MIC (Staphylococcus aureus [23]): 16 µg/mL (≈ 33.1 µM); MIC (Candida albicans [24]): 2 µg/mL; MFC (Candida parapsilosis [25]): 8 µg/mL (≈ 16.6 µM); MIC (Klebsiella pneumoniae): 128 µg/mL (≈ 265 µM) |
| OC(Cn1cncn1)(Cn1c2ccc(Br)cc2c2cc(Br)ccc21)c1ccc(F)cc1F (stereo not drawn) | 8 µg/mL (≈ 14.2 µM) | 16 µg/mL (≈ 28.5 µM) | 16 µg/mL (≈ 28.5 µM) | 128 µg/mL (≈ 228 µM) | 0.75 | 0.25 | 8 µg/mL (≈ 14.2 µM) | 2 | 4 µg/mL (≈ 7.11 µM) | 64 µg/mL (≈ 114 µM) | 64 µg/mL (≈ 114 µM) | 0.56 | 32 µg/mL (≈ 56.9 µM) | 4 µg/mL (≈ 7.11 µM) | 2 µg/mL | 2 | 32 µg/mL (≈ 56.9 µM) | 16 µg/mL | 32 µg/mL (≈ 56.9 µM) | 2 µg/mL (≈ 3.56 µM) | KSV (Calf thymus DNA [26]): 10 L/mol; Ratio (Candida tropicalis [27]): 2; K (Calf thymus DNA [28]): 7.8 ×10³ L/mol; Activity (Candida albicans [29]): Dose-dependent effect; Activity (Candida albicans [30]): Active; Activity (Calf thymus DNA [31]): Active; Activity (Candida albicans [32]): Active; Ratio (Candida parapsilosis [17]): 2; MIC (Escherichia coli [18]): 16 µg/mL (≈ 28.5 µM); MFC (Candida albicans [21]): 8 µg/mL (≈ 14.2 µM); Activity (Calf thymus DNA [33]): Active; Activity (Albumin): Active; MIC (Staphylococcus aureus [22]): 32 µg/mL (≈ 56.9 µM); MIC (Staphylococcus aureus [23]): 4 µg/mL (≈ 7.11 µM); Ratio (Candida parapsilosis [34]): 2; MIC (Candida albicans [24]): 0.5 µg/mL; MFC (Candida parapsilosis [25]): 4 µg/mL (≈ 7.11 µM); MIC (Klebsiella pneumoniae): 128 µg/mL (≈ 228 µM) |
| OC(Cn1cncn1)(Cn1c2ccccc2c2ccccc21)c1ccc(F)cc1F (stereo not drawn) | 16 µg/mL (≈ 39.6 µM) | 256 µg/mL (≈ 633 µM) | 32 µg/mL (≈ 79.1 µM) | 128 µg/mL (≈ 317 µM) | 1 | 0.56 | 16 µg/mL (≈ 39.6 µM) | 1 | 8 µg/mL (≈ 19.8 µM) | 64 µg/mL (≈ 158 µM) | 128 µg/mL (≈ 317 µM) | 0.37 | 128 µg/mL (≈ 317 µM) | 32 µg/mL (≈ 79.1 µM) | 4 µg/mL | 2 | 16 µg/mL (≈ 39.6 µM) | 32 µg/mL | 128 µg/mL (≈ 317 µM) | 8 µg/mL (≈ 19.8 µM) | Ratio (Candida parapsilosis [17]): 4; MIC (Escherichia coli [18]): 128 µg/mL (≈ 317 µM); MFC (Candida albicans [21]): 32 µg/mL (≈ 79.1 µM); MIC (Staphylococcus aureus [22]): 32 µg/mL (≈ 79.1 µM); MIC (Staphylococcus aureus [23]): 64 µg/mL (≈ 158 µM); MIC (Candida albicans [24]): 2 µg/mL; MFC (Candida parapsilosis [25]): 32 µg/mL (≈ 79.1 µM); MIC (Klebsiella pneumoniae): 64 µg/mL (≈ 158 µM) |
| OC(Cn1cncn1)(Cn1cncn1)c1ccc(F)cc1F [FLUCONAZOLE] | – | – | – | – | – | – | 2 µg/mL (≈ 6.53 µM) | – | 8 µg/mL (≈ 26.1 µM) | – | – | – | – | 4 µg/mL (≈ 13.1 µM) | – | – | – | – | 256 µg/mL (≈ 836 µM) | 4 µg/mL (≈ 13.1 µM) | Ratio (Candida albicans [35]): 8 |
